The test has as its target human glucagon receptor (Homo sapiens (Human), UniProt P47871). As to the kind of experiment: Glucagon cAMP Assay (Cisbio cAMP detection). To be noted: CHOK1 cells stably transfected with the human glucagon receptor; block of glucagon induced cAMP production; Kb by modified Cheng-Prusoff equation. Format: cell-based. The method, then: The Cisbio cAMP detection assay is used to determine the ability of punitive glucagon antagonist to block glucagon induced cAMP production. Potential glucagon antagonists are re-suspended and diluted in 100% DMSO. Prior to use in the Glucagon cAMP assay 100×DMSO compound stocks are diluted 20× with DMEM-F12 media (Invitrogen) containing either 0.1% or 4% BSA. […] 2 μls of 5% DMSO or known glucagon antagonist are added to each plate to define the assay window. CHOK1 cells stably transfected with the human glucagon receptor are removed from culture flasks with cell dissociation buffer. Cell pellets are re-suspended, at a concentration of 8.3e^5 cells/ml in DMEM-F12 with or without 4% BSA and 200 uM IBMX. 6 μls of cell suspensions are added to the assay plates. Plates are incubated for 20 min at room temperature prior to the addition of a 100 μM challenge dose of glucagon. On a separate plate glucagon dose response curves are run to determine the EC50 of glucagon. After a 30 min room temperature incubation the reaction is terminated by the addition of lysis buffer containing the cAMP detection reagents. Plates are incubated for an additional 60 min at room temperature prior to being read on the Perkin Elmer fluorescent plate reader. Raw is converted to nM of cAMP produced based on a cAMP standard curve. Converted data is then analyzed using the Pfizer data analysis program. IC50 values are determined from the generated sigmoidal dose response curves. Kb values are calculated using a modified Cheng-Prusoff equation. N is the number of times the compound was assayed.
On the technique in general: cAMP levels reflect the balance of adenylyl cyclase and phosphodiesterase activity.

These results are taken from patent US8507533B2, “Glucagon receptor modulators” (Pfizer Inc., priority 2011, dated 2013).

Molecules are shown by their SMILES.

Sequence of human glucagon receptor (P47871 26-477): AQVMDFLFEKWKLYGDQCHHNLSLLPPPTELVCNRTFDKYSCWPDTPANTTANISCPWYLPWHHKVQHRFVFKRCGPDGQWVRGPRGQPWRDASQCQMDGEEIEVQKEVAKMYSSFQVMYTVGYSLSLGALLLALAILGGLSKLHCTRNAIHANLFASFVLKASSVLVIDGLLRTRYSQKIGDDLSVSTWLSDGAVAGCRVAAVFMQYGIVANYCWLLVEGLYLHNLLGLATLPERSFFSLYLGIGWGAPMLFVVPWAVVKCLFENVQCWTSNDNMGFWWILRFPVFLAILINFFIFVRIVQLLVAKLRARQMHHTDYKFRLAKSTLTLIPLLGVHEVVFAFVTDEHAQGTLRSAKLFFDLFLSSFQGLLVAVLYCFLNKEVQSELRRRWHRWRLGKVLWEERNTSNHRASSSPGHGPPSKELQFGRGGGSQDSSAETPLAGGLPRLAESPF

`CCCC(Oc1ccc(-c2cc[nH]n2)cc1)c1ccc(C(=O)NCCC(=O)O)cc1` (racemic) [Example 51, (+/−)-3-(4-(1-(4-(1H-pyrazol-3-yl)phenoxy)butyl)benzamido)propanoic acid] gave a Kb of 1810 nM. `CCCC(Oc1ccc(-c2c(C)noc2C)cc1)c1ccc(C(=O)NCCC(=O)O)cc1` (racemic) [Example 52, (+/−)-3-(4-(1-(4-(3,5-dimethylisoxazol-4-yl)phenoxy)butyl)benzamido)propanoic acid] had a Kb of 2410 nM. As for `CCCC(Oc1ccc(-c2cnn(C)c2)cc1)c1ccc(C(=O)NCCC(=O)O)cc1` (racemic) [Example 54, (+/−)-3-(4-(1-(4-(1-methyl-1H-pyrazol-4-yl)phenoxy)butyl)benzamido)propanoic acid], the figure is 3530 nM; as for `CCCC(Oc1ccc(-c2cnn(C)c2C)cc1)c1ccc(C(=O)NCCC(=O)O)cc1` (racemic) [Example 55, (+/−)-3-(4-(1-(4-(1,5-dimethyl-1H-pyrazol-4-yl)phenoxy)butyl)benzamido)propanoic acid], 3720 nM; as for `CCCC(Oc1ccc(-c2cn[nH]c2)cc1)c1ccc(C(=O)NCCC(=O)O)cc1` (racemic) [Example 56, (+/−)-3-(4-(1-(4-(1H-pyrazol-4-yl)phenoxy)butyl)benzamido)propanoic acid], 4370 nM.

As to `CCCC(Oc1ccc(-c2ccnn2C)cc1)c1ccc(C(=O)NCCC(=O)O)cc1` (racemic) [Example 57, (+/−)-3-(4-(1-(4-(1-methyl-1H-pyrazol-5-yl)phenoxy)butyl)benzamido)propanoic acid], the Kb worked out at 6100 nM. Compound `CCCC(Oc1ccc(-c2c(C)nn(C)c2C)cc1)c1ccc(C(=O)NCCC(=O)O)cc1` (racemic) [Example 58, (+/−)-3-(4-(1-(4-(1,3,5-trimethyl-1H-pyrazol-4-yl)phenoxy)butyl)benzamido)propanoic acid] displayed a Kb of 7300 nM. On to `CCCC(Nc1ccc(-n2cc(-c3ccccc3)cn2)nc1)c1ccc(C(=O)NCCC(=O)O)cc1` (racemic) [Example 62, (+/−)-3-(4-(1-(6-(4-phenyl-1H-pyrazol-1-yl)pyridine-3-ylamino)butyl)benzamido)propanoic acid], for which the Kb came to 32.2 nM. As for `CCCC(Nc1ccc(-n2cc(F)cn2)cc1)c1ccc(C(=O)NCCC(=O)O)cc1` (racemic) [Example 63, (+/−)-3-(4-(1-(4-(4-fluoro-1H-pyrazol-1-yl)phenylamino)butyl)benzamido)propanoic acid], the figure is 613 nM; as for `CC(C)CC(Nc1ccc(C(=O)NCCC(=O)O)cn1)c1ccc(-n2cc(C(F)(F)F)cn2)cc1` (racemic) [Example 64, (+/−)-3-(6-(3-methyl-1-(4-(4-(trifluoromethyl)-1H-pyrazol-1-yl)phenyl)butylamino)nicotinamido)propanoic acid], 494 nM. As for `O=C(O)CCNC(=O)c1ccc(C(CC2CC2)Oc2ccc(-n3cc(C(F)(F)F)cn3)cc2)cc1` (racemic) [Example 65, (+/−)-3-(4-(2-cyclopropyl-1-(4-(4-(trifluoromethyl)-1H-pyrazol-1-yl)phenoxy)ethyl)benzamido)propanoic acid], the figure is 2880 nM; as for `CCCC(Oc1ccc(-n2ccc(C(F)(F)F)n2)cc1)c1ccc(C(=O)NCCC(=O)O)cc1` (racemic) [Example 70, (+/−)-3-(4-(1-(4-(3-(trifluoromethyl)-1H-pyrazol-1-yl)phenoxy)butyl)benzamido)propanoic acid], 1910 nM. As for `CC(C)(C)CC(Oc1ccc(-n2cc(C(F)(F)F)cn2)cc1)c1ccc(C(=O)NCCC(=O)O)cc1` (racemic) [Example 71, (+/−)-3-(4-(3,3-dimethyl-1-(4-(4-(trifluoromethyl)-1H-pyrazol-1-yl)phenoxy)butyl)benzamido)propanoic acid], the figure is 2120 nM; as for `CCCC(Oc1ccc(-n2cc(C)c(C(F)(F)F)n2)cc1)c1ccc(C(=O)NCCC(=O)O)cc1` (racemic) [Example 72, (+/−)-3-(4-(1-(4-(4-methyl-3-(trifluoromethyl)-1H-pyrazol-1-yl)phenoxy)butyl)benzamido)propanoic acid], 2300 nM.
